Experimental findings from article PMC9037180, “Ligand-based design and synthesis of N'-Benzylidene-3,4-dimethoxybenzohydrazide derivatives as potential antimicrobial agents; evaluation by in vitro, in vivo, and in silico approaches with SAR studies” (Journal of Enzyme Inhibition and Medicinal Chemistry, 2022) are described below.

By MIC is commonly meant the lowest concentration that inhibits growth of the organism. A word on the pIC50: it is the negative decadic logarithm of the IC50, by convention in mol/L. A high value points to a low IC50.

Series [1] has as its system S. typhi clinical isolate. The series is described as follows: Minimal inhibitory concentration (MIC), broth dilution. The format is cell-based. Background: Dilution methods test growth across graded concentrations, often in twofold steps.
The nature of series [2]: Cytotoxicity on cells using MTT assay. The format is cell-based. The settings on record: African green monkey, Vero cells (normal mammalian cell line). How it is done: The newly synthesised compounds were looked deeply into their efficacy using in silico, in vitro, and in vivo approaches. On the other hand, the cytotoxicity assay was performed for the tested compounds using a normal mammalian Vero cell line by the MTT assay[31]^,[32].
Moreover, the cytotoxicity values of the target compounds were determined to calculate their corresponding IC50 values through the MTT assay. The IC50 value indicates the compound’s concentration that is required to inhibit 50% of the target cells.
The MTT (3–(4,5-dimethylthiazol-2-yl)-2,5-diphenyltetrazolium bromide) tetrazolium reduction assay protocol was applied to determine the cytotoxicity of the target compounds (4a–j) on cells.

Series [3] has as its system Acientobacter (A. baumanii) ATCC 19606. The series is described as follows: Agar well diffusion assay. The format is cell-based. Particulars: result in words. The method, then: (§1) The agar well diffusion assay was first done to evaluate the antimicrobial activities of the different target compounds (4a–j) against gram-positive bacteria, gram-negative bacteria, and fungi (Table 1A). […] First, the antibacterial activities were tested against S. aureus ATCC 6538, Acientobacter (A. baumanii) ATCC 19606, S. typhi, E. coli, and P. aeruginosa as examples of the most common gram-positive and gram-negative bacteria, in comparison to vancomycin and ceftriaxone as two reference standards. In addition, the antifungal activities were screened against C. albicans, in comparison to amphotericin as a reference standard. […] The antibacterial activities of some tested compounds (4a, 4b, 4h, and 4e) against gram-positive and gram-negative bacteria by agar well diffusion assay are represented in the supplementary data (Figure SI1).
(§2) A modification of the agar well diffusion method[55] was done to detect the antimicrobial activities of different compounds (4a–j) against gram-positive bacteria, gram-negative bacteria, and fungi. The work was carried out at the Microbiology Department Faculty of Medicine for Girls Al-Azhar University. By visual comparison to 0.5 McFarland turbidity standards, a suspension of each bacterial strain was prepared. The zones of inhibition were measured in cm.

For series [4], the system named is E. coli. The series is described as follows: Agar well diffusion assay. The format is cell-based. Particulars: result in words. The method, then:
as §1, §2
A general note: A growth-free zone around the sample is the usual read-out of agar diffusion tests.

The test system of series [5] is C. albicans. The series is described as follows: Minimal bactericidal concentration (MBC). Format: cell-based. The settings on record: Candida albicans. The method, then:
(§3) After determining the MIC for the target compounds, the minimal bactericidal concentration (MBC) for each compound that is required to kill each one of the above-mentioned microorganisms was assessed.

For series [6], the system named is A. baumanii. The series is described as follows: Minimal bactericidal concentration (MBC). The format is cell-based. Particulars: Acinetobacter baumannii. How it is done: as §3
The subject of series [7] is C. albicans MTCC183. The series is described as follows: Minimal inhibitory concentration (MIC), broth dilution. The format is cell-based. An excerpt: In vitro evaluation for antifungal activities regarding target compounds (4a–j) as well as reference drug, was done against C. albicans MTCC183 through the zone inhibition technique using well diffusion agar assay in addition to MIC.

For series [8], the system named is S. typhi. The series is described as follows: Agar well diffusion assay. Format: cell-based. The settings on record: result in words. How it is done: as §1, §2
The subject of series [9] is S. aureus ATCC 6538. The series is described as follows: Agar well diffusion assay. The format is cell-based. Particulars: result in words. How it is done: as §1, §2
The subject of series [10] is P. aeruginosa. The series is described as follows: Agar well diffusion assay. Format: cell-based. The settings on record: result in words. The method, then:
as §1, §2

For series [11], the system named is Aciento sensitive. The series is described as follows: Minimal bactericidal concentration (MBC). Format: cell-based, A. baumanii. The settings on record: Aciento sensitive. The method, then: as §3

pIC50: −log10 of the molar value. ≈ marks a conversion by molar mass, not a printed value. Read-outs that look alike come from different tables or passages of the source.

Regarding `COc1ccc(C(=O)NN=Cc2ccc3ccccc3n2)cc1OC` [Compound 4i, N'-(quinolin-2-ylmethylene)-3,4-dimethoxybenzohydrazide], the MIC in series [1] (Salmonella enterica, TYPHI) was determined as 93.4 µM (≈ 31.3 µg/mL); in [7] (Candida albicans, MTCC183) it was 23.3 µM (≈ 7.81 µg/mL). Moreover, the pIC50 in [2] is 3.52. Also, the “zones of inhibition (inhibitory activity)” value in series [3] is given as “most inhibitory activity”; in [4], “superior inhibitory activity”. The MBC in series [5] and in [6] was 186 µM (≈ 62.5 µg/mL) in each case.
In the case of “N'-((3a,7a-dihydro-1H-indol-3-yl)methylene)-3,4-dimethoxybenzohydrazide [Compound 4h]”, the minimal inhibitory concentration (MIC) stood at 12.07 µM in series [1] (S. typhi (ST)) and 386.80 µM in series [7] (C. albicans (CA), read-out: MIC). The “zones of inhibition (inhibitory activity)” value in [8], in [9] and in [10] was “best activities” in each case. Also, the MBC in series [11] was 96.87 µM.
